Source: patent US8778974B2, “Trisubstituted 1,2,4 triazoles” (Janssen Pharmaceutica NV, priority 2008, dated 2014)

Key:
[1] = target: T1, hα7-wt nAChR-expressing GH4Cl cells (Homo sapiens, UniProt P36544); assay: Patch-clamp current recording (whole-cell), potentiation of choline 1 mM response, PAM type; type: cell-based; set-up: key to Pam type: Type 0 compounds minimally enhance the effect size of the current elicited by 1 mM choline.; Type 1 compounds enhance the effect size of the current elicited by 1 mM choline but minimally alter the kinetics of the receptor.; Type 2 compounds enhance the effect size of the current elicited by 1 mM choline while reducing the rate and/or the extent of desensitization.; Type 3 compounds enhance the effect size of the current elicited by 1 mM choline. When tested at higher concentrations up to 10 μM they completely inhibit desensitization, in particular a 1 mM choline application of 250 milliseconds.; Type 4 compounds allow for an initial desensitization of the receptor followed by a re-opening of the receptor during agonist application; details: for EC50: according to Ex. D.2, "<5" = no top plateau reached at maximal concentration, read-out: Potency (pEC50) (converted); for Pam type: patch-clamp current recording, 1 mM choline
T1 construct: expressed in transfected cells
T1 sequence (P36544 23-502): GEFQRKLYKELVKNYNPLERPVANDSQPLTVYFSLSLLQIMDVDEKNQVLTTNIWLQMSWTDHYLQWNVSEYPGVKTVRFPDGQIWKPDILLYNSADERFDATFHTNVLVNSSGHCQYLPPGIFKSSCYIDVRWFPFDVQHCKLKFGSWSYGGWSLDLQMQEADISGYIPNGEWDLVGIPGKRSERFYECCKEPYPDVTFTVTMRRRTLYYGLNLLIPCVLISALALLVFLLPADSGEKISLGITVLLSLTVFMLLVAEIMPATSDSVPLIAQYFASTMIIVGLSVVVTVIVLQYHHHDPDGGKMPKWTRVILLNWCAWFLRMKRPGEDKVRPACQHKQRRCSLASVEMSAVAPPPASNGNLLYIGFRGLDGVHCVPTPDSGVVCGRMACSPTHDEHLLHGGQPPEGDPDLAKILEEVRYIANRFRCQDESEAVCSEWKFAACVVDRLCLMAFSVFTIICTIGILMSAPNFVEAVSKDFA
Description: The compounds of the present invention are classified as type 1-4, based on qualitative kinetic properties, as determined by whole-cell voltage-clamp recordings. This classification is based on the effect of an α7 PAM compound, as described hereinbefore, on the signal elicited by an agonist application. In particular, said agonist is choline at a concentration of 1 mM. In a preferred experimental setting, said α7 PAM compound and choline are simultaneously applied to the cell, as described hereinafter. Desensitization is defined as the closure of the receptor upon activation during the application of the agonist in whole-cell voltage-clamp electrophysiology measurements seen as the reduction of the […] current after initial activation by the agonist.
The definition of the PAM types 1-4 is described hereinafter: • Type 0 compounds minimally enhance the effect size of the current elicited by 1 mM choline. • Type 1 compounds enhance the effect size of the current elicited by 1 mM choline but minimally alter the kinetics of the receptor. In particular, the rate and the extent of desensitization, elicited by the agonist, is not affected. The compound-modulated response to 1 mM choline, therefore, is a close to linear scaling of the 1 mM choline response in absence of the α7 PAM compound. • Type 2 compounds enhance the effect size of the current elicited by 1 mM choline while reducing the rate and/or the extent of desensitization. • Type 3 compounds enhance the effect size of the current elicited by 1 mM choline. […] At low-potency concentrations of the α7 PAM compound, the agonist-induced activation, which is followed by desensitization, can still be separated from the compound-induced re-opening as an initial inward current-maximum. At higher potency concentrations of the α7 PAM compound, the re-opening occurs faster than the closure due to desensitization so that the initial current-maximum disappears.
Patch-clamp Current Recording
Patch-clamp recording from mammalian cells has provided a powerful means of assessing the function of membrane-bound proteins thought to be subunits of ligand-gated ion channels. Activation of such proteins by endogenous or exogenous ligands cause opening of a pore associated with the receptor through which ions flow down their electrochemical gradient. In the case of the hα7-wt nAChR-expressing GH4Cl recombinant cell line the preferential permeability to calcium of this receptor means that calcium flows into the cell upon activation by ACh, choline and other nicotinic ligands giving rise to a calcium current. Since this receptor rapidly desensitizes in the presence of agonist it is important an application system is used which is capable of very rapid switching of solutions (<100 ms) to prevent partial or full desensitisation of receptor responses coincident with the time of agonist application. Consequently, a second convenient technique to assess the enhancement of nicotinic efficacy is patch-clamp recording from hα7-wt nAChR-expressing GH4Cl cells coupled with a rapid-application system.
• a) Assay buffers • The external recording solution consisted of 152 mM NaCl, 5 mM KCl, 1 mM MgCl2, 1 mM Calcium, 10 mM HEPES; pH 7.3. The internal recording solution consisted of 140 mM CsCl, 10 mM HEPES, 10 mM EGTA, 1 mM MgCl2, pH 7.3. • b) Patch-clamp recording was carried out using a Patch-clamp amplifier (Multiclamp 700A, Axon Instruments, Calif., USA). hα7-wt nAChR-expressing GH4Cl cells were patch-clamp in the whole cell configuration (Hamill et al, 1981) with a borosilicate glass electrode of 1.5-3 MΩ tip resistance when filled with the internal recording solution. Recordings were made on cells with membrane resistance >500 MΩ and more preferably 1GΩ and series resistance <15 MΩ with at least 60% series resistance compensation. […]

melting point [°C] | SMILES | EC50 [1] [nM] | Pam type [1]
282.2 | Cc1cc(-n2nc(Nc3cccc(OC(F)(F)F)c3)nc2CC(=O)NC2CC2)cc(C)n1 [E182, N-cyclopropyl-1-(2,6-dimethyl-4-pyridinyl)-3-[[3-(trifluoromethoxy)phenyl]amino]-1H-1,2,4-triazole-5-acetamide] | 331 | 2
191.5 | Cc1cc(-n2nc(Nc3ccc(F)c(C(F)(F)F)c3)nc2CCCF)ccn1 [E8, 5-(3-Fluoropropyl)-N-[4-fluoro-3-(trifluoromethyl)phenyl]-1-(2-methyl-4-pyridinyl)-1H-1,2,4-triazol-3-amine] | 513 | 0
145.7 | CN(C)C(=O)CCc1nc(Nc2cccc(OC(F)(F)F)c2)nn1-c1cccnc1Cl [E76] | 407 | 
127.5 | CC[C@H](O)Cc1nc(Nc2ccc(F)c(F)c2)nn1-c1ccc(C)nc1 [E140] | 1620 | 2
135.4 | COc1ccc(-n2nc(Nc3cc(OC)cc(C(F)(F)F)c3)nc2C[C@H](C)O)cc1 [E146] | ~363 | 
197.6 | Cc1cc(-n2nc(Nc3ccc(F)c(C(F)(F)F)c3)nc2CCCO)ccn1 [E7, 3-[[4-Fluoro-3-(trifluoromethyl)phenyl]amino]-1-(2-methyl-4-pyridinyl)-1H-1,2,4-triazole-5-propanol] | 1000 | 2
270 | Cc1cc(-n2nc(Nc3cccc(C(F)(F)F)c3)nc2CC(=O)NC2CC2)cc(C)n1 [E171] | 501 | 4
154.6 | CC[C@H](O)Cc1nc(Nc2cccc(Cl)c2)nn1-c1cc(C)nc(C)c1 [E129] | 245 | 2
117.6 | CC[C@H](O)Cc1nc(Nc2ccc(F)c(F)c2)nn1-c1ccc(OC)cc1 [E29] | 1150 | 1
212.8 | CNc1ncccc1-n1nc(Nc2cccc(OC(F)(F)F)c2)nc1CCC(=O)N(C)C [E6, N,N-Dimethyl-1-[2-(methylamino)-3-pyridinyl]-3-[[3-(trifluoromethoxy)phenyl]amino]-1H-1,2,4-triazole-5-propanamide] | 851 | 
151.7 | Cc1ncccc1-n1nc(Nc2ccc3c(c2)OC(F)(F)O3)nc1CCC(=O)N(C)C [E116] | 2950 | 
180.6 | CC[C@H](O)Cc1nc(Nc2ccc(F)c(F)c2)nn1-c1cc(C)nc(C)c1 [E132] | 240 | 2
176.6 | CC[C@H](O)Cc1nc(Nc2cc(F)c(F)c(F)c2)nn1-c1cc(C)nc(C)c1 [E188, (alphaS)-1-(2,6-dimethyl-4-pyridinyl)-alpha-ethyl-3-[(3,4,5-trifluorophenyl)amino]-1H-1,2,4-triazole-5-ethanol] | 224 | 2
179.6 | CN(C)C(=O)CCc1nc(Nc2ccc(F)c(F)c2)nn1-c1ccccc1Cl [E57] | 1070 | 3
272.9 | CNC(=O)Cc1nc(Nc2ccc(F)c(C(F)(F)F)c2)nn1-c1ccnc(C)c1 [E35] | 1170 | 3
177.4 | CC[C@H](O)Cc1nc(Nc2cc(F)c(F)c(F)c2)nn1-c1ccnc(C)c1 [E187, (alphaS)-alpha-ethyl-1-(2-methyl-4-pyridinyl)-3-[(3,4,5-trifluorophenyl)amino]-1H-1,2,4-triazole-5-ethanol] | 224 | 2
279.3 | Cc1cc(-n2nc(Nc3ccc(F)c(F)c3)nc2CC(=O)NC2CC2)cc(C)n1 [E168] | 513 | 2
141.4 | COCCCc1nc(Nc2ccc(F)c(C(F)(F)F)c2)nn1-c1ccnc(C)c1 [E15] | 110 | 0
170.4 | C[C@H](O)Cc1nc(Nc2ccc(F)c(C(F)(F)F)c2)nn1-c1ccc(F)cc1 [E20] | 4470 | 

The remaining lines, values behind:

SMILES | melting point [°C] | EC50 [1] [nM] | Pam type [1]
C[C@H](O)Cc1nc(Nc2ccc(F)c(F)c2)nn1-c1cccc(F)c1 [E17] | 177.1 | 3550 | 
Cc1cc(-n2nc(Nc3ccc4c(c3)OC(F)(F)O4)nc2CC(=O)NC2CC2)cc(C)n1 [E180, N-cyclopropyl-3-[(2,2-difluoro-1,3-benzodioxol-5-yl)amino]-1-(2,6-dimethyl-4-pyridinyl)-1H-1,2,4-triazole-5-acetamide] | 292.6 | 302 | 2
Cc1cc(-n2nc(Nc3ccc(F)c(F)c3F)nc2C[C@H](C)O)ccn1 [E277] | 131.4 | 6310 | 
COc1cccc(-n2nc(Nc3ccc(F)c(C(F)(F)F)c3)nc2CCC(=O)N(C)C)c1 [E61] | 173.6 | 85.1 | 
COc1cc(Nc2nc(C[C@H](C)O)n(-c3ccc(C)nc3)n2)cc(C(F)(F)F)c1 [E143] | 137.5 | 912 | 4
CCNC(=O)Cc1nc(Nc2cccc(OC(F)(F)F)c2)nn1-c1cc(C)nc(C)c1 [E181] | 277.5 | 513 | 2
COc1cc(Nc2nc(C[C@H](C)O)n(-c3ccnc(C)c3)n2)cc(C(F)(F)F)c1 [E135] | 196.3 | 550 | 4
CCc1cc(-n2nc(Nc3cc(OC)cc(C(F)(F)F)c3)nc2C[C@H](C)O)ccn1 [E133] | 156.2 | 363 | 4
CCNC(=O)Cc1nc(Nc2cccc(Cl)c2F)nn1-c1cc(C)nc(C)c1 [E153, 3-[(3-chloro-2-fluorophenyl)amino]-1-(2,6-dimethyl-4-pyridinyl)-N-ethyl-1H-1,2,4-triazole-5-acetamide] | 231.4 | 562 | 2
CCc1cc(-n2nc(Nc3ccc(F)c(F)c3)nc2C[C@H](C)O)ccn1 [E131] | 168 | 1380 | 2
Cc1cc(-n2nc(Nc3cc(F)c(F)c(F)c3)nc2C[C@H](C)O)cc(C)n1 [E208] | 199.6 | 741 | 2
CN(C)C(=O)CCc1nc(Nc2ccc(F)c(C(F)(F)F)c2)nn1-c1ccncc1Cl [E74] | 181.7 | 72.4 | 4
Cc1cc(-n2nc(Nc3ccc(F)c(C(F)(F)F)c3)nc2C[C@@H](C)O)cc(C)n1 [E199] | 224.4 | 1070 | 2
CNC(=O)CCc1nc(Nc2ccc(F)c(C(F)(F)F)c2)nn1-c1cccc(OC)c1 [E42] | 170.9 | 2750 | 
Cc1cc(-n2nc(Nc3ccc(F)c(F)c3)nc2C[C@@H](C)O)cc(C)n1 [E197] | 225.1 | 1780 | 2
CC[C@H](O)Cc1nc(Nc2cccc(Cl)c2)nn1-c1ccc(C)nc1 [E196] | 110.4 | 912 | 2
Cc1cc(-n2nc(Nc3ccc(F)c(C(F)(F)F)c3)nc2CCC(=O)N(C)C)cc(C)n1 [E233] | 184 | ~29.5 | 
